From ChEMBL document CHEMBL1144172, “Discovery of novel series of benzoic acid derivatives containing biphenyl ether moiety as potent and selective human beta(3)-adrenergic receptor agonists: Part IV” (Bioorg Med Chem Lett, 2008)
pEC50: −log10 of the molar value.

Key:
[1] = molecular target: Beta-1 adrenergic receptor (Homo sapiens, UniProt P08588)
Description: Agonist activity at human cloned adrenergic beta-1 receptor expressed in CHO cells assessed as cAMP accumulation

[2] = molecular target: Beta-3 adrenergic receptor (Homo sapiens, UniProt P13945); experiment: Agonist activity at human cloned adrenergic beta3 receptor expressed in CHO cells assessed as cAMP accumulation; type: functional, cell-based
[3] = tested on: CHO; experiment: Selectivity for human cloned adrenergic beta-1 receptor over human cloned adrenergic beta3 receptor expressed in CHO cells; type: cell-based
[4] = molecular target: Beta-3 adrenergic receptor (Canis lupus familiaris) (UniProt O02662); experiment: Agonist activity at dog cloned adrenergic beta3 receptor assessed as inhibition of carbachol-induced increase in intravesical pressure at 32 ug/kg, iv; type: functional
[5] = molecular target: Beta-3 adrenergic receptor (Canis lupus familiaris, UniProt O02662); experiment: Agonist activity at dog cloned adrenergic beta3 receptor expressed in CHO cells assessed as cAMP accumulation; type: functional, cell-based
[6] = molecular target: Beta-3 adrenergic receptor (Canis lupus familiaris) (UniProt O02662); experiment: Agonist activity at dog cloned adrenergic beta3 receptor assessed as inhibition of carbachol-induced increase in intravesical pressure at 10 ug/kg, iv; type: functional

Beta-1 adrenergic receptor, sequence (P08588 whole entry): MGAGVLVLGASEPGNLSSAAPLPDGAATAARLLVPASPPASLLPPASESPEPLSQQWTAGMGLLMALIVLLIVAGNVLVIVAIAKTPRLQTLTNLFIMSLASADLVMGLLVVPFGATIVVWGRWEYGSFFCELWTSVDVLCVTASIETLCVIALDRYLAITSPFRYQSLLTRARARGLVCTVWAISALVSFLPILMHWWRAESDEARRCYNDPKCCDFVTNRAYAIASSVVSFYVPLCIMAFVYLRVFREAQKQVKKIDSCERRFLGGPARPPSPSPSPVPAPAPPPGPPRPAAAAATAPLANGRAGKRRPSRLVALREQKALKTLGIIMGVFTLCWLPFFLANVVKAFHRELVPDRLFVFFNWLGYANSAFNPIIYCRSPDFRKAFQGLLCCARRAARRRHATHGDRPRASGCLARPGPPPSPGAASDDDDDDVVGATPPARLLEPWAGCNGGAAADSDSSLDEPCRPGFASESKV
Beta-3 adrenergic receptor (Homo sapiens, UniProt P13945), sequence (P13945 whole entry): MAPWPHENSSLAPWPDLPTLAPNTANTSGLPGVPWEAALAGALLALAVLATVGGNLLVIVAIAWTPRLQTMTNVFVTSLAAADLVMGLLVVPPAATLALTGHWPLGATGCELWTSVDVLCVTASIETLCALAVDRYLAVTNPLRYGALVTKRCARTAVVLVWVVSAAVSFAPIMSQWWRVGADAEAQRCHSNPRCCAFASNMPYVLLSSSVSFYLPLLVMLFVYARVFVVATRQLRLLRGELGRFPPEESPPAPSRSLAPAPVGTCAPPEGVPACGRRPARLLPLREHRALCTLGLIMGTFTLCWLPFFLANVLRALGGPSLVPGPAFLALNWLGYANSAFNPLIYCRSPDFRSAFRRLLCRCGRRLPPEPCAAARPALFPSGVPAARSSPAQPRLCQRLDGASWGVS
Beta-3 adrenergic receptor (Canis lupus familiaris), sequence (O02662 whole entry): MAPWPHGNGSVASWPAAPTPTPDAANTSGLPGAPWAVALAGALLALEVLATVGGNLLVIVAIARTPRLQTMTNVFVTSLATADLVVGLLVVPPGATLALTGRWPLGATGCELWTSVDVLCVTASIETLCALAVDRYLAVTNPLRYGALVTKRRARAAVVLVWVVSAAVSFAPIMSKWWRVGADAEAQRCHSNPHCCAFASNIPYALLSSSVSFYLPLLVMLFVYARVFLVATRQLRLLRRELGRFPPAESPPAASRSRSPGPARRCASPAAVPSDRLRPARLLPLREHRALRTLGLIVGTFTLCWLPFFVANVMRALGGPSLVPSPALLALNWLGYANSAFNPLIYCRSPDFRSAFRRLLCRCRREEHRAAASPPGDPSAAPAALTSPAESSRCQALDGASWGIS
Beta-3 adrenergic receptor (Canis lupus familiaris, UniProt O02662), sequence (O02662 whole entry): as above

Row | pEC50 [1] | pEC50 [2] | inhibition [4] [%] | pEC50 [5] | inhibition [6] [%] | Structure (SMILES) | Ratio EC50 [3]
1 | 6.62 | 8.19 | – | – | – | CC(=O)Nc1cc(Oc2cccc(CCNC[C@H](O)c3cccc(Cl)c3)c2)cc(C(=O)O)c1 | 37
2 | 6.85 | 8.03 | – | – | – | O=C(O)c1cc(Oc2cccc(CCNC[C@H](O)c3cccc(Cl)c3)c2)ccc1F | 15
3 | 6.08 | 7.51 | – | – | – | O=C(O)c1cc(Oc2cccc(CCNC[C@H](O)c3cccnc3)c2)ccc1F | 27
4 | < 7.00 | 7.85 | – | – | – | O=C(O)c1cccc(Oc2cccc(CCNC[C@H](O)c3cccc(Cl)c3)c2)c1 | > 7.1
5 | 6.16 | 7.25 | – | – | – | COc1ccc(Oc2cccc(CCNC[C@H](O)c3cccnc3)c2)cc1C(=O)O | 12
6 | 6.42 | 8.14 | – | – | – | CC(=O)Nc1ccc(Oc2cccc(CCNC[C@H](O)c3cccc(Cl)c3)c2)cc1C(=O)O | 53
7 | 6.29 | 7.96 | – | – | – | COc1ccc(Oc2cccc(CCNC[C@H](O)c3cccc(Cl)c3)c2)cc1C(=O)O | 46
8 | 6.21 | 8.34 | 30 | 8.80 | – | CC(C)(C)C(=O)Nc1ccc(Oc2cccc(CCNC[C@H](O)c3cccc(Cl)c3)c2)cc1C(=O)O | 135
9 | < 7.00 | 7.22 | – | – | – | O=C(O)c1ccc(Oc2cccc(CCNC[C@H](O)c3cccc(Cl)c3)c2)cc1 | –
10 | 6.26 | 7.89 | – | – | – | Cc1ccc(Oc2cccc(CCNC[C@H](O)c3cccc(Cl)c3)c2)cc1C(=O)O | 42
11 | 6.09 | 8.47 | – | 8.49 | 43 | CC(C)Oc1ccc(Oc2cccc(CCNC[C@H](O)c3cccc(Cl)c3)c2)cc1C(=O)O | 238
12 | < 6.00 | 8.18 | 84 | 8.72 | – | O=C(O)c1cc(Oc2cccc(CCNC[C@H](O)c3cccc(Cl)c3)c2)ccc1N1CCCC1=O | > 152
13 | 7.19 | 8.02 | – | – | – | O=C(O)c1cc(Oc2cccc(CCNC[C@H](O)c3cccc(Cl)c3)c2)ccc1Cl | 6.7

Row | Structure (SMILES) | pEC50 [1] | pEC50 [2] | inhibition [4] [%] | pEC50 [5] | inhibition [6] [%] | Ratio EC50 [3]
14 | O=C(O)c1cc(NC(=O)c2ccccc2)cc(Oc2cccc(CCNC[C@H](O)c3cccc(Cl)c3)c2)c1 | 6.72 | 7.68 | – | – | – | 9
15 | C[C@H](Cc1cccc(Oc2cccc(C(=O)O)c2)c1)NC[C@H](O)c1cccc(Cl)c1 | 7.55 | 8.72 | – | – | – | 15
16 | CC(=O)Nc1ccc(Oc2cccc(CCNC[C@H](O)c3cccnc3)c2)cc1C(=O)O | 6.72 | 7.92 | – | – | – | 16
17 | O=C(Nc1ccc(Oc2cccc(CCNC[C@H](O)c3cccc(Cl)c3)c2)cc1C(=O)O)c1ccccc1 | 6.89 | 8.07 | – | – | – | 15
